This note sets out measurements from patent US11111230B2 (ADLAI NORTYE BIOPHARMA CO., LTD., priority 2017, dated 2021).

In one experiment the test system is Hela cells. Kind of experiment: Activity in Hela cells (interferon-γ induced, kynurenine readout with Ehrlich's reagent). The class given is cell-based. The settings on record: Homo sapiens, interferon-γ 50 ng/mL, tryptophan 16 mg/L, 48 hours, absorption at 480 nm. As for the experimental part:
Example 1: Study on the Activity of the Compound of the Present Invention in Hela Cells
Hela cells were seeded in 96-well culture plates and incubated at 37° C., 100% relative humidity, 5% CO2 incubator for 24 hours. The compound was dissolved in DMSO and diluted to an appropriate concentration, and then the compound was diluted 100-fold with DMEM medium containing interferon-γ and 10% fetal bovine serum to the final concentration of effect. Aspirate the old medium from the 96-well plate and add 200 μL of each medium containing compound and interferon-γ from the previous step. The content of tryptophan in the medium is 16 mg/L, and the concentration of interferon-γ is 50 ng/mL. The cells were placed in a 37° C., 100% relative humidity, and 5% CO2 incubator for 48 hours, then 140 μL of the cell culture supernatant was mixed with 15 μL of trichloroacetic acid, and placed at 52° C. for 30 min, then centrifuged at room temperature to take the centrifugal supernatant. Mix with an equal volume of Ehrlich's reagent, measure the light absorption at 480 nm, and calculate the IC50 values.

In a further experiment the target is T1, human IDO1 protein (Homo sapiens, UniProt P14902).
T1 construct: expressed in transfected cells; host or cells: HEK293
T1 sequence (P14902 whole entry): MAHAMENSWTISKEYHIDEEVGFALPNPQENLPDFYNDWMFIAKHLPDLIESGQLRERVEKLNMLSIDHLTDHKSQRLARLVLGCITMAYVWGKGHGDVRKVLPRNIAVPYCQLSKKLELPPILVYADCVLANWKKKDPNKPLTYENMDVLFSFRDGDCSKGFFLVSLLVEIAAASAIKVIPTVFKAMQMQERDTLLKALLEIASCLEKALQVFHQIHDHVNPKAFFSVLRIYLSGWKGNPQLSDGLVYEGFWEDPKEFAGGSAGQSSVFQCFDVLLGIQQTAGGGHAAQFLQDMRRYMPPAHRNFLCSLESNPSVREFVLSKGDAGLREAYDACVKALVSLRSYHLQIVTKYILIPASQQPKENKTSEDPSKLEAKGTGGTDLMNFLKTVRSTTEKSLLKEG
The experiment can be described thus: Activity in HEK293 cells highly expressing human IDO1 protein. The class given is cell-based. The settings on record: HEK293-IDO cells, tryptophan 16 mg/L, 24 hours, absorption at 480 nm; read-out: IC50 (HEK293 cell). The protocol: Example 2: Study on the Activity of the Present Invention in HEK293 Cells Highly Expressing Human IDO1 Protein
HEK293-IDO cells with high expression of human IDO1 protein were prepared by electrotransformation, and the cells were seeded in 96-well culture plates, and cultured at 37° C., 100% relative humidity, and 5% CO2 incubator for 24 hours. Dissolve in DMSO and dilute to the appropriate concentration, then use DMEM medium containing 10% fetal bovine serum to dilute the candidate 100-fold to the final concentration. Aspirate the old medium from the 96-well plate and add 200 μL of the medium contained in the previous step to each well. The content of tryptophan in the medium is 16 mg/L. The cells were placed in a 37° C., 100% relative humidity, and 5% CO2 incubator for 24 hours. 140 μL of the cell culture supernatant was mixed with 15 μL of trichloroacetic acid and placed at 52° C. for 30 min. Mix with an equal volume of Ehrlich's reagent, measure the light absorption at 480 nm, and calculate the IC50 values.

As for `O=C(Nc1ccc(Cl)cc1)[C@H]1CC12CCC(c1ccnc3ccc(F)cc13)CC2` (single isomer, unassigned) [Compound 10a], the IC50 with Hela cells and on human IDO1 protein was 0.1 to 10 nM in each case.

Turning to `Cc1cc2nccc(C3CCC4(CC3)CC4C(=O)Nc3cncc(Cl)c3)c2cc1F` (centres unmarked) [Compound 96], the IC50 with Hela cells is 10 to 100 nM; at human IDO1 protein, more than 100 nM.

As for `N#Cc1cc2nccc(C3CCC4(CC3)CC4C(=O)Nc3ccc(Cl)cc3)c2cc1F` (centres unmarked) [Compound 102, N-(4-chlorophenyl)-6-(7-cyano-6-fluoroquinolin-4-yl)spiro[2.5]octane-1-carboxamide], the figures for the IC50 in the experiment on Hela cells and at human IDO1 protein were 0.1 to 10 nM and 10 to 100 nM, respectively.

For the compound `O=C(Nc1ccc(Br)cc1)C1CC12CCC(c1ccnc3ccc(F)cc13)CC2` (centres unmarked) [Compound 11, N-(4-bromophenyl)-6-(6-fluoroquinolin-4-yl)spiro[2.5]octane-1-carboxamide], the IC50 in the experiment on Hela cells fell in the range of 0.1 to 10 nM; on human IDO1 protein it was 10 to 100 nM.

As for `COCCOc1ccc(NC(=O)[C@H]2C[C@]23CC[C@H](c2ccnc4cc(C)c(F)cc42)CC3)cc1` (single isomer, unassigned) [Compound 98], the half-inhibitory concentration (IC50) in the experiment on Hela cells and at human IDO1 protein was 0.1 to 10 nM in each case.

In the case of `Cc1cc2nccc([C@H]3CC[C@@]4(CC3)C[C@H]4C(=O)Nc3ccc(Cl)cc3)c2cc1F` (single isomer, unassigned) [Compound 93], the IC50 in the experiment with Hela cells and at human IDO1 protein was more than 100 nM in each case.

For the compound `O=C(Nc1ccc(Cl)cc1)C1CC12CCC(c1ccnc3cc(F)c(F)cc13)CC2` (centres unmarked) [Compound 100, N-(4-chlorophenyl)-6-(6,7-difluoroquinolin-4-yl)spiro[2.5]octane-1-carboxamide], the IC50 in the experiment with Hela cells lay in the range of 0.1 to 10 nM; at human IDO1 protein, 10 to 100 nM.

Turning to `O=C(Nc1ccc(F)cc1)C1CC12CCC(c1ccnc3ccc(F)cc13)CC2` (centres unmarked) [Compound 2, N-(4-fluorophenyl)-6-(6-fluoroquinolin-4-yl)spiro[2.5]octane-1-carboxamide], the IC50 in the experiment on Hela cells and on human IDO1 protein was 10 to 100 nM throughout.

Regarding `COCCOc1ccc(NC(=O)C2CC23CCC(c2ccnc4cc(C)c(F)cc24)CC3)cc1` (centres unmarked) [Compound 94, 6-(6-fluoro-7-methylquinolin-4-yl)-N-(4-(2-methoxyethoxy)phenyl)spiro[2.5]octane-1-carboxamide], the values for the IC50 with Hela cells and on human IDO1 protein were 0.1 to 10 nM and 10 to 100 nM, respectively.

Regarding `Cc1cc2nccc([C@H]3CC[C@@]4(CC3)C[C@@H]4C(=O)Nc3ccc(Cl)cc3)c2cc1F` (single isomer, unassigned) [Compound 92], the IC50 in the experiment with Hela cells and on human IDO1 protein was 0.1 to 10 nM each time.

In the case of `Cc1cc2nccc(C3CCC4(CC3)CC4C(=O)Nc3ccc(Cl)cc3)c2cc1F` (centres unmarked) [Compound 9, N-(4-chlorophenyl)-6-(6-fluoro-7-methylquinolin-4-yl)spiro[2.5]octane-1-carboxamide], the IC50 with Hela cells and at human IDO1 protein was 0.1 to 10 nM in each case.

Regarding `Cc1cc2nccc(C3CCC4(CC3)CC4C(=O)Nc3ccc(Cl)nc3)c2cc1F` (centres unmarked) [Compound 95, N-(6-chloropyridin-3-yl)-6-(6-fluoro-7-methylquinolin-4-yl)spiro[2.5]octane-1-carboxamide], the 50% inhibitory concentration (IC50) was 0.1 to 10 nM in the experiment on Hela cells and 10 to 100 nM on human IDO1 protein.

Regarding `N#CC1(C(=O)Nc2ccc(Cl)cc2)CC12CCC(c1ccnc3ccc(F)cc13)CC2` (centres unmarked) [Compound 107, N-(4-chlorophenyl)-1-cyano-6-(6-fluoroquinolin-4-yl)spiro[2.5]octane-1-carboxamide], the concentration for half-maximal inhibition (IC50) with Hela cells and at human IDO1 protein was more than 100 nM throughout.

`O=C(Nc1ccc(Cl)cc1)C1CC12CCC(c1ccnc3cc4c(cc13)OCO4)CC2` (centres unmarked) [Compound 110, 6-([1,3]dioxolo[4,5-g]quinolin-8-yl)-N-(4-chlorophenyl)spiro[2.5]octane-1-carboxamide]: the IC50 is 10 to 100 nM in the experiment on Hela cells and more than 100 nM at human IDO1 protein.

Regarding `COc1cc2nccc([C@H]3CC[C@@]4(CC3)C[C@H]4C(=O)Nc3ccc(Cl)cc3)c2cc1F` (single isomer, unassigned) [Compound 109], the IC50 in the experiment on Hela cells and at human IDO1 protein was more than 100 nM in each case.

In the case of `O=C(Nc1ccc(Cl)c(F)c1)C1CC12CCC(c1ccnc3ccc(F)cc13)CC2` (centres unmarked) [Compound 12, N-(4-chloro-3-fluorophenyl)-6-(6-fluoroquinolin-4-yl)spiro[2.5]octane-1-carboxamide], the IC50 in the experiment on Hela cells and at human IDO1 protein was 10 to 100 nM each time.

On to `O=C(Nc1ccc(Cl)cn1)C1CC12CCC(c1ccnc3ccc(F)cc13)CC2` (centres unmarked) [Compound 8, N-(5-chloropyridin-2-yl)-6-(6-fluoroquinolin-4-yl)spiro[2.5]octane-1-carboxamide], for which the IC50 in the experiment with Hela cells and on human IDO1 protein was 10 to 100 nM each time.

On to `O=C(Nc1ccc(Cl)nc1)C1CC12CCC(c1ccnc3ccc(F)cc13)CC2` (centres unmarked) [Compound 7, N-(6-chloropyridin-3-yl)-6-(6-fluoroquinolin-4-yl)spiro[2.5]octane-1-carboxamide], for which the IC50 in the experiment on Hela cells and on human IDO1 protein was 10 to 100 nM throughout.

As to `COc1cc2nccc(C3CCC4(CC3)CC4C(=O)Nc3ccc(Cl)cc3)c2cc1F` (centres unmarked) [Compound 105, N-(4-chlorophenyl)-6-(6-fluoro-7-methoxyquinolin-4-yl)spiro[2.5]octane-1-carboxamide], the IC50 is 10 to 100 nM in the experiment on Hela cells and 0.1 to 10 nM at human IDO1 protein.

As to `Cc1cc2nccc(C3CCC4(CC3)CC4C(=O)Nc3ccnc(Cl)c3)c2cc1F` (centres unmarked) [Compound 97], the IC50 in the experiment on Hela cells and at human IDO1 protein was more than 100 nM in each case.

Turning to `COCCOc1ccc(NC(=O)C2CC23CCC(c2ccnc4cc(OC)c(OC)cc24)CC3)cc1` (centres unmarked) [Compound 113, 6-(6,7-dimethoxyquinolin-4-yl)-N-(4-(2-methoxyethoxy)phenyl)spiro[2.5]octane-1-carboxamide], the IC50 in the experiment on Hela cells was 0.1 to 10 nM; on human IDO1 protein, 10 to 100 nM.

Take `COc1cc2nccc([C@H]3CC[C@@]4(CC3)C[C@@H]4C(=O)Nc3ccc(Cl)cc3)c2cc1F` (single isomer, unassigned) [Compound 108]: the IC50 in the experiment on Hela cells and on human IDO1 protein was 0.1 to 10 nM throughout.
